Experimental data reported in US20240120053A1, “5-HT RECEPTOR AGONIST TITRATION” (Diamond Therapeutics Inc., priority 2021, published 2024).
“Also recorded” adds a separate entry of the source.

Assays:
[1] = system: mice; test: Ongoing spectral power (qEEG, power spectral density) over daily recording sessions; type: in vivo; settings: ascending low, medium, high dose (FIG. 7A-8B)
Method: (§1) Fourteen mice with a history of testing with scopolamine and memantine, containing implanted with a frontal screw for MMN measurement (in mm: AP 1.5; ML 0.5) and an auditory screw for ASSR measurement (in mm: AP −2.8; ML 4.2), are administered an ascending dose of psilocybin. As the mice have been tested with the MMN-ASSR protocol, they are not further habituated prior to psilocybin testing. The ascending dose protocol is summarized below and in FIG. 1: • Week 1: Day 1: Saline, Day 2: Vehicle • Week 2: Day 1:Saline, Day 2: Low Dose • Week 3: Day 1: Saline, Day 2: Medium Dose • Week 4: Day 1: Saline, Day 2: High Dose
In particular, on Day 1, animals are subcutaneously administered saline at t=−15 minutes prior to recording start. […]
(§2) The ongoing behavior (e.g., speed, total number of grooming bouts, elongation factor, distance traveled, head bobbing, etc.) of each mouse is assessed over each daily recording session (e.g., see FIG. 3). […] The amplitude of the standard and deviant waveforms are also calculated. […] The ASSR is recorded as the average amplitude of both Evoked Power and Phase Locking Factor at each frequency (20 Hz, 30 Hz, 40 Hz, and 8 Hz) for control (saline) and compound (psilocybin). The difference between the control and compound recording for Evoked Power (e.g., see FIG. 4A and FIG. 4B) and Phase Locking Factor (e.g., see FIG. 5A and FIG. 5B) is determined. […]

[2] = system: out-bred Long Evans rats; test: 5CSRTT with long 10 s ITI, premature (PREM) and perseverative (PSV) responses; type: in vivo; settings: 24 rats, 0.05 mg/kg S.C., p=0.05, t-test
Description: (§3) The 5CSRTT involves evaluating test subject response to a brief visual stimulus (Higgins, Guy & Silenieks, Leonardo. (2017). Rodent Test of Attention and Impulsivity: The 5-Choice Serial Reaction Time Task: The 5-Choice Serial Reaction Time Task. 10.1002/cpph.27). Animals are trained to make a nose-poke response to a stimulus location in order to collect a food reward. The task allows the experimenter to measure animal performance in multiple domains including: • Attention • Impulsivity • Perseveration • Speed of response
(§4) A strength of the test is its flexible configuration to challenge test subjects: • Standard test conditions (0.75s stimulus duration (SD), 5s inter-trial interval (ITI), 100 trials) • Multiple short stimulus duration (mSD) (0.03-1s SD) • Fixed long ITI (5 s vs. 10 s ITI) • Multiple ultrashort ITI (2-5s ITI) • Extended 250 trials
When this population is segmented into tertiles according to performance based on accuracy (% correct, calculated as #correct/(#correct+#incorrect)*100), the lowest performing tertile (N=8) are considered to be low attentive and potentially representative of a low attentive endophenotype of depression (FIG. 26A). Low attentive rats also score poorly on % hit (FIG. 26B) and have a slower response speed (FIG. 26D). […] Asterisk (*) indicates statistical significance vs. vehicle. […]

[3] = cited from earlier work
[4] = system: out-bred Long Evans rats; test: 5-choice serial reaction time task (5CSRTT), standard conditions, 5 s ITI; type: in vivo
Method: (§5) Experiments were conducted to test psilocybin doses in the range of 0.05-0.2 mg/kg psilocybin administered S.C. across progressive ratio (PR) and 5-choice serial reaction time task (5CSRTT) to examine the effect of psilocybin on endophenotypes of motivation and attention. In each study, a population of out-bred Long Evans rats was first tested as a group for response to the PR and 5CSRTT. Each group was then divided into sub-groups by tertiles according to performance, and then exposed to various dose levels immediately prior to re-testing at various psilocybin dose levels.
as §3, §4
Asterisk (*) indicates statistical significance vs. vehicle. (FIG. 23A).
When this population is segmented into tertiles according to performance based on accuracy (% correct, calculated as #correct/(#correct+#incorrect)*100), the lowest performing tertile (N=8) are considered to be low attentive and potentially representative of a low attentive endophenotype of depression (FIG. 26A). Low attentive rats also score poorly on % hit (FIG. 26B) and have a slower response speed (FIG. 26D). […] Asterisk (*) indicates statistical significance vs. vehicle. […] Using a longer duration between stimulus and reward, the 5CSRTT study measures premature (PREM) and perseverant (PSV) responses. PREM/PSV responses were increased by increasing the ITI from 5s (baseline) to 10s (test condition). […] Both PREM and PSV behaviors are examples of executive cognitive function, likely involving areas of the prefrontal cortex, a brain region rich in 5-HT2A receptors.

[5] = system: mice; test: Mismatch Negativity (MMN) EEG test, ascending dose protocol; type: in vivo; settings: ascending low, medium, high dose, frontal cortex EEG recording (FIG. 6A, 6B)
Method: as §1
Each animal is administered the same compound and dose each day (e.g., saline on day 1, vehicle or compound on day 2). […]
as §2

[6] = system: out-bred Long Evans rats; test: Progressive ratio (PR) test of motivation; type: in vivo
Method: as §5
The PR test is used to answer how willing the test subject is to work for food (i.e. test of motivation). A single 45 mg food pellet (i.e. reinforcer) is made available to the test animal based on lever press response. To obtain each successive pellet, the animal must make increasingly more lever presses. Typically, a progression of 2, 4, 6, 9, 12, 15, 20, 25, 32, 40, 50, 62, 77, 95, 118, etc. is used, derived from the equation:
ratio=[5×e^(0.2×reinforcer#)−5]
At some point, the animal gives up as the motor demands to obtain a single pellet are not deemed worthwhile (i.e. animal reaches“break point” defined as animal's failure to earn a food pellet in 20 minutes).
Rats were then sub-grouped into tertiles based on the number of lever presses for food at baseline, so that within the test population of 36 animals, 12 animals were identified as low responders, characterized by low motivation and potentially corresponding to low motivation endophenotype representative of clinical depression. Twelve animals were identified as high responders. There was a statistically significant difference between the high and low responders. […] This represents a motivational enhancing effect of psilocybin in the cohort corresponding to a low motivation endophenotype representative of clinical depression.

[7] = Blood plasma levels of psilocin over time in rats dosed with psilocybin; type: in vivo; settings: psilocybin 0.05 mg/kg, after 30 mins
[8] = 24 rats, standard conditions, 5 s ITI

CN(C)CCc1c[nH]c2cccc(OP(=O)(O)O)c12 [psilocybin, 4-phosphoryloxy-N,N-dimethyltryptamine]
general brain activity (ongoing spectral power, average PSD) [1]: higher dose corresponds with a decrease in general brain activity | PREM and PSV responses [2]: increase | doses at which about half of the subjects experience some negative emotions or acute psychological distress ([3]; human subjects): ≥ 30 mg | doses at which the majority of side effects reported in the literature have occurred ([3]; human subjects, equals 0.30-0.45 mg/kg): 20 to 30 mg | threshold dose where mild hallucinogenic activity begins to occur in about half of the subjects ([3]; human subjects, reported in the literature): 10 mg | onset of physical symptoms (dizziness, nausea, vomiting, headaches, increased pulse and blood pressure etc.) ([3]; people, after taking the drug): 20 to 30 min | duration of physical symptoms (dizziness, nausea, vomiting, headaches, increased pulse and blood pressure etc.) ([3]; people): up to 6 hours | duration of psychedelic symptoms (distorted perception, mood changes) ([3]; people, higher doses, most find symptoms gone by 6 hours after ingestion): up to 12 hours | pro-cognitive effect measured as % hit ([4]; 24 rats, 0.05 mg/kg S.C., 75s SD, 5S ITI, 100 trials, vs. vehicle): increased (p=0.05, t-test) pro-cognitive effect | procognitive effect measured as % correct ([4]; 24 rats, 0.05 mg/kg S.C., standard conditions, 5 s ITI): slight non-significant increase | performance: response speed, number of trials completed [4, 8]: no effect on response speed, or number of trials completed | premature or perseverative responses [4, 8]: no effect on premature or perseverative responses | detrimental effects on performance (motivation, motor control, attention, response speed) ([4]; PR and 5CSRTT studies together, 0.05-0.2 mg/kg (PR), 0.05-0.1 mg/kg S.C. (5CSRTT)): no detrimental effects | response speed ([4]; low attentive cohort, 0.05 mg/kg, vs. vehicle, 0.05 mg/kg): increased response speed; also recorded: Significant improvements | effect on accuracy (% correct and % hit) ([4]; low attentive subgroup (lowest tertile, N=8), 0.05 and 0.1 mg/kg, vs. vehicle): strongly evident; also recorded: Significant improvements | MMN: difference between the standard tone waveform and the deviant tone waveform [5]: larger difference between the standard tone waveform and the deviant form waveform with higher doses | number of lever presses or break points (rewards earned) ([6]; entire study population of 36 rats, 0.05, 0.1 and 0.2 mg/kg S.C.): None of these doses were observed to cause obvious changes | response in PR test ([6]; high responder subgroup (12 rats), 0.05-0.2 mg/kg S.C.): no effect on response | food responding (lever presses, break point) in PR test ([6]; low responder subgroup (12 rats), 0.05 mg/kg S.C., 0.05 mg/kg): an increase in food responding; also recorded: Significant improvements | food responding in PR test ([6]; low responder subgroup (12 rats), 0.1 mg/kg S.C.): did not produce an increase in food responding | Cmax psilocin [7]: 6+2 ng/ml
